Test results reported in article PMC6315057, “Industrial scale high-throughput screening delivers multiple fast acting macrofilaricides” (Nature Communications, 2019).

Experiments:
[1] = system: Wolbachia in C6/36 (wAlbB) cells; test: Secondary concentration response HTS (IC50) anti-Wolbachia screen in C6/36 (wAlbB) insect cells; type: cell-based, Wolbachia pipientis wAlbB (in Aedes albopictus C6/36 cells); conditions: Wolbachia, 168 h, 7-day incubation, 10-point concentration range
Procedure: Initially C6/36 (wAlbB) cells (insect cells stably infected with the Wolbachia target) from a single cryopreserved batch were recovered over 7 days prior to plating into 384-well assay ready plates (containing the test compounds), using a semi-automated process allowing for daily batches of ~150 plates, set up 4 days per week for 8 weeks. After a 7-day incubation period with the test compounds the plates were moved into the second fully automated stage (using the Agilent Technologies BioCel system) involving formaldehyde fixation, DNA staining of the insect cell nuclei (Hoechst) for toxicity analysis and antibody staining specific to the intracellular Wolbachia (wBmPAL primary antibody and far-red secondary antibody). In the final stage the fixed and stained plates from stage 2 were processed through automated data acquisition (High Res Biosolutions system, incorporating EnVision™ and acumen® plate readers). This industry standardised assay was then used to screen AstraZeneca’s full library of 1.3 million compounds within 10 weeks. In total this HTS included 30 × 3 week assays covering 3835 × 384-well plates. This primary HTS generated 20,255 hits defined as >80% reduction in Wolbachia with <60% toxicity to the host insect cell (eliminating false positives). This represents an overall hit rate of 1.56%. These compounds are depicted in chemical space in Fig. 2 (black points)[21].
The mosquito (Aedes albopictus) derived cell line C6/36 (ATCC® CRL 1660), stably infected with Wolbachia pipientis wAlbB (C6/36(wAlbB)), was maintained in Leibovitz L15 medium containing 2 mM L-glutamine, 1% nonessential amino acids, 2% tryptose phosphate broth and 20% heat-inactivated foetal bovine serum (FBS) at 26 °C[18]. This screen exclusively used cells from the large-scale cryopreserved batch produced as part of this campaign by culturing the cells at scale before cryopreservation (90% FBS and 10% DMSO). This produced a cell bank of 190 × 1 ml cryovials containing 3 × 10^7 cells per vial.
On day 0, a single cryovial was recovered and the cells washed before being transferred to a T225 cm^2 flask. After a 7-day recovery Wolbachia infection level (quality control (QC)) was checked by SYTO®11 DNA staining of both the host cell nuclei and intracellular Wolbachia. The end-point read out from the Operetta® high content imaging system (Perkin Elmer) was the percentage of cells infected with Wolbachia. This was obtained from cytoplasm texture analysis by the associated Harmony® software. Cells with a >50% of the population infected with Wolbachia were classed as having a good Wolbachia level and therefore used for screening through addition of 2000 cells per well into assay ready 384-well plates containing the test compounds. […] Each plate included on-board controls; vehicle/DMSO (total/maximum Wolbachia signal) or doxycycline 5 µM (null/minimum Wolbachia signal), resulting in single shot screening of 352 compounds per plate for the primary screen. […] QC plates were also created including full columns of the following controls; DMSO (total/max), 5 μM doxycycline (null/min), as well as 50 nM doxycycline (reference/medium Wolbachia signal). Daily batches contained ~150 compound plates in addition to the QC plates. Each compound plate was foil sealed before incubation for 7 days at 26 °C, 95% humidity and atmospheric air.
After 7 days of drug incubation, the plates were loaded into the fully automated BioCel system which performed the following additions; fixation and DNA staining (1.8% formaldehyde + 0.6 µg/ml Hoechst 33342, 20 min), permeabilisation (80 μl of PBS + 0.25% Triton-X 100, 30 min), blocking (PBS + 6% BSA, 40 min), overnight incubation in the Wolbachia-specific anti-wBmPAL primary antibody[34] […]

[2] = system: Wolbachia within Brugia malayi Mf; test: Anti-Wolbachia time-kill analysis (timed wash-out) in B. malayi Mf; type: cell-based; conditions: 10x EC50, 1 day exposure, wash, 6-day read out, normalised to vehicle control
From the text: To compare the dynamics of the in vitro phenotype of our hits with existing anti-Wolbachia therapies, we employed a timed wash-out strategy (Fig. 5) at 10x EC50 to establish the anti-Wolbachia time-kill kinetics of the selected chemotypes (1A–5A), using five replicates per compound. […].
Fig. 5 Anti-Wolbachia time-kill analysis. Representatives from the top five clusters (1A–5A), as well as established anti-Wolbachia antibacterials (doxycycline (white), minocycline (grey), rifampicin (black)) were assessed after exposure for 1 day and 2 days before washing and further incubation until the standard 6-day read out. wsp:gst ratio was normalised to the DMSO vehicle control resulting in a read out of mean percentage reduction from control. Doxycycline day 6 treatment represents the result for exposure to doxycycline at 5 µM for a full 6 days (no wash). The box extends from the 25th to the 75th percentile with the median presented by the central line. The whiskers are set at the minimum and maximum therefore indicating the range from five replicates. The cluster number is indicated by colour: cluster 1 (dark blue), 2 (magenta), 3 (teal), 4 (dark gold), and 5 (light blue)
The Mf were obtained by peritoneal lavage, using a catheter, of gerbils (Meriones unguiculatus) harbouring a patent infection of B. malayi. Mf were purified using a PD-10 desalting column (Fisher), centrifuged (311 RCF for 5 min at room temperature) before the addition of 8000 Mf/well of a 96-well plate (100 µl per well) in complete media consisting of RPMI supplemented with 10% FBS, 1% penicillin streptomycin and 1% amphotericin B. Compounds were diluted in complete media and 100 µl was added per well, providing a final concentration of 5 µM, with five replicates per compound. Each plate contained doxycycline (5 µM) and DMSO controls. After incubation at 37 °C for 6 days in 5% CO2, visual assessment of Mf motility was performed and scored from 0 to 4 per well (where 0 = no movement and 4 = highly motile). DNA extraction per sample was performed using the QIAmp DNA Mini Kit before quantitative PCR was performed to obtain the ratio of Wolbachia Surface Protein gene copy number (wsp) to Glutathione S-Transferase gene copy number (gst)[36]. The DNA was amplified using the primers as indicated in Supplementary Table 6.
The wsp:gst ratio data allowed for normalisation of the Wolbachia level to the Mf biomass for each well. The change in wsp:gst for each compound compared to the DMSO control was calculated before normalisation to the onboard doxycycline control to allow for inter-assay comparison.

SMILES | IC50 [1] | Wolbachia reduction after a single day of exposure [2]
Cc1nccc(N2CCC(C(=O)N(C)CCN(C)S(=O)(=O)c3ccc(Br)cc3)CC2)n1 [1A, N-(2-((4-bromo-N-methylphenyl)sulfonamido)ethyl)-N-methyl-1-(2-methylpyrimidin-4-yl)piperidine-4-carboxamide] | 184 nM | 57–67%
COc1ccc(CC(=O)Nc2[nH]nc(C)c2-c2ccccc2)c(Cl)c1 [2A, 2-(2-chloro-4-methoxyphenyl)-N-(3-methyl-4-phenyl-1H-pyrazol-5-yl)acetamide] | 2390 nM | 57–67%
CC1COCCN1c1cc(OCc2ccccc2)nc(-c2nccn2C)n1 (stereo not shown) [3A, 4-(6-(benzyloxy)-2-(1-methyl-1H-imidazol-2-yl)pyrimidin-4-yl)-3-methylmorpholine] | 968 nM | 42%
CCc1ccc(CN2CCCC2c2nc(C(=O)N(C)C)cs2)s1 (stereo not shown) [4A, 2-(1-((5-ethylthiophen-2-yl)methyl)pyrrolidin-2-yl)-N,N-dimethylthiazole-4-carboxamide] | 145 nM | 57–67%
Cc1nc(C(=O)NC(C)c2ccc(F)cc2)c(NC(=O)Cc2ccccc2)[nH]1 (stereo not shown) [5A, N-(1-(4-fluorophenyl)ethyl)-2-methyl-5-(2-phenylacetamido)-1H-imidazole-4-carboxamide] | 594 nM | 57–67%
